Laboratory results as given in US20260000698A1 (priority 2022, published 2026).
Marks after values point to notes of the source that are not given here.

Assays:
A549/ACE2/TMPRSS2 cells = experiment: in vitro; conditions: cell viability at 50 μM
Method: Percentage of infected cells was determined by dividing the number of infected cells by the total number of cells per well. The percentage of infected cells and total number of cells for each treatment was plotted into GraphPad prism (GraphPad Software; San Diego, CA, USA) to perform a non-linear regression analysis, generate infectious dose-response curves and to calculate EC50 and CC50 values.
Viability assays for the non-infected A549/ACE2/TMPRSS2 cells were performed using the 3-(4,5-dimethylthiazol-2-yl)-5-(3-carboxymethoxyphenyl)-2-(4-sulfophenyl)-2H-tetrazolium (MTS)-based tetrazolium reduction CellTiter 96 Aqueous Non-Radioactive cell proliferation assay (Promega G5430; Madison, WI) as described. Assays were conducted using parallel plates to those used in the immunofluorescence assay. Experimental details (cell line, number of cells seeded and incubation time) corresponded to those used in the immunofluorescence assay above. The data obtained were used to calculate the CC50 value using GraphPad Prism software.

[1] = Liver S9 stability assay, mouse liver S9; conditions: n = 2, mean±SD
[2] = Liver S9 stability assay, human liver S9; conditions: n = 2, mean±SD
[3] = Plasma stability assay, mouse plasma; assay type: in vitro ADME, mouse (CD-1)
Method: Plasma stability assay. The plasma stability assay was performed in triplicate by incubating each selected compound (1 μmol/L final concentration) in normal mouse (CD-1) or human plasma (Innovative Research; Novi, MI, USA) diluted to 80% with 0.1 mol/L potassium phosphate buffer (pH 7.4) at 37° C. At 0, 1, 3, 6, and 24 h, a 50 μL aliquot of the plasma mixture was taken and quenched with 150 μL of acetonitrile containing 0.1% formic acid. The samples were then vortexed and centrifuged at 15,000 rpm (Eppendorf centrifuge 5424R; Enfield, CT, USA) for 5 min. The supernatants were collected and analyzed by LC-MS/MS to determine the in vitro plasma half-life (t1/2).

G9a = biological target: T1, G9a (Homo sapiens, UniProt Q96KQ7); experiment: Human MTase screening: G9a; assay type: biochemical
T1 construct: purchased BPS Bioscience
T1 sequence (Q96KQ7 1-1210): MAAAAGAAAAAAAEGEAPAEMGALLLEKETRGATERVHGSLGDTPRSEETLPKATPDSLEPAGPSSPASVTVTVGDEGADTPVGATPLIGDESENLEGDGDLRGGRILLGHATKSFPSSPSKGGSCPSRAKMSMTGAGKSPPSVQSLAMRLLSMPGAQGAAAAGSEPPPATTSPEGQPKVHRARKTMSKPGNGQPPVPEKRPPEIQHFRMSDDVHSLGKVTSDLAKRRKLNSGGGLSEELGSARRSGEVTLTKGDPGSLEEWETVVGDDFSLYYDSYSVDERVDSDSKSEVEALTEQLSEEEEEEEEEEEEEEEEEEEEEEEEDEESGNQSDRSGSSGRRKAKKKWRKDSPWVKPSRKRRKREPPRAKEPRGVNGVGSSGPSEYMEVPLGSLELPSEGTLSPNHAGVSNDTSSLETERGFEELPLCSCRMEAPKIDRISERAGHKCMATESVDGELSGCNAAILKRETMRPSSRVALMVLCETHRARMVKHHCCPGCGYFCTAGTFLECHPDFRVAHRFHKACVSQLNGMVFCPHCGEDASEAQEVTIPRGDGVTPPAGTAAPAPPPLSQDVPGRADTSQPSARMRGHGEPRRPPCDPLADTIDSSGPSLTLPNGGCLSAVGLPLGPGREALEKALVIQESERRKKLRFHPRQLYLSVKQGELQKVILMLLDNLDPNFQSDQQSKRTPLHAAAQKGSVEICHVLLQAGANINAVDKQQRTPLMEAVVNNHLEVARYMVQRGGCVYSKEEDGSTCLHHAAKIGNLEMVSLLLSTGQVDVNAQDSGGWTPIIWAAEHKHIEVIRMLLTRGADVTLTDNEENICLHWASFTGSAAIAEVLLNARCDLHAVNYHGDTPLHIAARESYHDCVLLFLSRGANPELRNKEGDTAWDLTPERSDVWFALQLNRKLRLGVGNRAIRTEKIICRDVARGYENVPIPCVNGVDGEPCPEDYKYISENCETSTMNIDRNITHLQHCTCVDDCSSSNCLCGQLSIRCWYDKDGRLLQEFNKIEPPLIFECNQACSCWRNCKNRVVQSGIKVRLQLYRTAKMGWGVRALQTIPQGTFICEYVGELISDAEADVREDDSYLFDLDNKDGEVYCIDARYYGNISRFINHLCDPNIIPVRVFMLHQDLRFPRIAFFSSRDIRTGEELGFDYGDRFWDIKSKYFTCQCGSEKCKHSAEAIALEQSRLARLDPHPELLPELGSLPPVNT
Method: (§1) Assay conditions. The human methyltransferase inhibition assays were performed at BPS Bioscience (San Diego, CA, USA). All of the enzymatic reactions were conducted in duplicate at room temperature for 60-960 min in a 50 μL mixture containing proper methyltransferase assay buffer, S-adenosylmethionine (SAM), enzyme, and the test compound. These 50 μL reactions were carried out in wells of a substrate pre-coated plate. First, enzyme and inhibitor were added to assay wells and preincubated for 30 min at room temperature, then SAM was added to start the reaction. Final DMSO concentration was 1% in all reactions.
(§2) After enzymatic reactions, the reaction mixtures were discarded and each of the wells was washed three times with TBST buffer, and slowly shaken with Blocking Buffer for 10 min. Wells were emptied, and 100 μL of diluted primary antibody was added. The plate was then slowly shaken for 60 minutes at room temperature. […] Immediately, the luminescence of the samples was measured in a BioTek Synergy™ 2 (Winooski, VT, USA) microplate reader using Gen5 software.
(§3) Data analysis. […] The luminescence data/alpha counts were analyzed and compared. […] The percent activity in the presence of each compound was calculated according to the following equation: % activity=(C−C0)/(Ce−C0), where C=the luminescence/alpha counts in the presence of the compound.

MLL1 Complex = biological target: T2, MLL1 Complex (Homo sapiens, UniProt Q03164); experiment: Human MTase screening: MLL1 Complex; assay type: biochemical
T2 construct: purchased BPS Bioscience
T2 sequence (Q15291 whole entry): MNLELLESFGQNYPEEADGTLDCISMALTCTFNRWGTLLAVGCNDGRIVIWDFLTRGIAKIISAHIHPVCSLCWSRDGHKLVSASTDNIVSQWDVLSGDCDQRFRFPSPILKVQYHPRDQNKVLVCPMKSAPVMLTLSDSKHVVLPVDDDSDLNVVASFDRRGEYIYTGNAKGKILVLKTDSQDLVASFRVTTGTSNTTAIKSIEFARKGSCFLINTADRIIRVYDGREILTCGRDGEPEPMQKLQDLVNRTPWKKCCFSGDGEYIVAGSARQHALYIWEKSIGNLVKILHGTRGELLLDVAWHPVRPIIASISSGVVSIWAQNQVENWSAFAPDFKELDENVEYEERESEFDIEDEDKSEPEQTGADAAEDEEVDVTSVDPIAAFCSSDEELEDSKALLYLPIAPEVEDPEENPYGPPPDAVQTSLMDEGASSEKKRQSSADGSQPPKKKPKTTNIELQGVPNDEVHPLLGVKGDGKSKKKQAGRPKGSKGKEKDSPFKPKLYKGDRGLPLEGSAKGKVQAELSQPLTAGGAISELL
T2 sequence (Q9C005 whole entry, further chain): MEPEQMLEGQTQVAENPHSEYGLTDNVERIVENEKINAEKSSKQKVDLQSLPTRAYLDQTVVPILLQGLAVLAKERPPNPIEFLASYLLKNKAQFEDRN
T2 sequence (Q9UBL3 whole entry, further chain): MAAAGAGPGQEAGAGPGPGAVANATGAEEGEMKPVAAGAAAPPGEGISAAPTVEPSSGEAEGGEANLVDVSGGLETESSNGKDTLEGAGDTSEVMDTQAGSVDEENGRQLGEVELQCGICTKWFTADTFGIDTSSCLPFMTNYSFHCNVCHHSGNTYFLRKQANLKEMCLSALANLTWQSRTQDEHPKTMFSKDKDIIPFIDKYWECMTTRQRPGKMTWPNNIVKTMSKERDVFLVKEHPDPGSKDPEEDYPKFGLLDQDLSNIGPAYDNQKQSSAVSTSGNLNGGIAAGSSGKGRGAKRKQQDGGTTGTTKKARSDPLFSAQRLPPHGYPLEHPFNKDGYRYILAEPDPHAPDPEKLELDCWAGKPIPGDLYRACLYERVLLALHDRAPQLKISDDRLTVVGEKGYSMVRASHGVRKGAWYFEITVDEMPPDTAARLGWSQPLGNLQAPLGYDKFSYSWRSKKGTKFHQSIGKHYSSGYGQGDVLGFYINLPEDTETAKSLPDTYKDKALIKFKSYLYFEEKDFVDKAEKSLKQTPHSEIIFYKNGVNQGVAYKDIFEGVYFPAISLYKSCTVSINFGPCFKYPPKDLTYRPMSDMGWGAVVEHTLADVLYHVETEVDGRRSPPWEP
T2 sequence (Q03164 3745-3969): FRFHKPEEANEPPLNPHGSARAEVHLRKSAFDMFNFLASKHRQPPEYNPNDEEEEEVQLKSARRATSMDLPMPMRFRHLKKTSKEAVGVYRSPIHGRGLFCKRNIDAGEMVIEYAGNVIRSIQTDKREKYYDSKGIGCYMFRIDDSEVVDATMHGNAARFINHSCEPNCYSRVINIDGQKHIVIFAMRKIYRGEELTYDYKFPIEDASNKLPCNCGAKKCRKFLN
Method: as §1, §2, §3

## Nc1ncnc2c1ncn2[C@@H]1O[C@H](CNS(=O)(=O)c2ccc3ccccc3c2)[C@@H](O)[C@H]1O [Compound 3, N-(((2R,3S,4R,5R)-5-(6-Amino-9H-purin-9-yl)-3,4-dihydroxytetrahydrofuran-2-yl)methyl)naphthalene-2-sulfonamide]
A549/ACE2/TMPRSS2 cells
  CC50: NT (nontoxic): NT^b (NT, nontoxic, >95% cell viability at 50 μM;)
[1]; cofactor NADPH
  Mouse Liver S9 Stability t1/2, Phase I: 4.55 ± 0.383 h
[1]; cofactor UDPGA
  Mouse Liver S9 Stability t1/2, Phase II: >45^e min
[2]; cofactor NADPH
  Human Liver S9 Stability t1/2, Phase I: 11.2 ± 2.27 h
[2]; cofactor UDPGA
  Human Liver S9 Stability t1/2, Phase II: >45^e min
[3]; mouse plasma, 37° C., n = 3
  Plasma Stability t1/2, Mouse: >24^d h
[3]; mouse, plasma
  stability in mouse plasma: remarkably stable
G9a
  inhibition at 10 µM: 11%
MLL1 Complex
  inhibition at 10 µM: 1%
